Like-named read-outs stand apart in the source and are kept apart here.
Columns and labels:
[1] = system: Plasmopara viticola; assay: Test Example G: Downy mildew on vine; format: in vivo; conditions: 250 ppm sprayed (2.5 ml/pot) before inoculation, assessed 7 to 10 days after inoculation, read-out: control value, Test G (downy mildew on vine)
[2] = system: Magnaporthe grisea; assay: whole plant or invertebrate; format: in vivo; conditions: Pyricularia oryzae, in Oryza sativa, read-out: control value, Test A (blast on rice)
[3] = system: Phytophthora infestans; assay: whole plant or invertebrate; format: in vivo; conditions: in Solanum lycopersicum, read-out: control value, Test F (late blight on tomato)
[4] = system: Botrytis cinerea; assay: Test Example B: Gray mold on tomato; format: in vivo; conditions: Table 7, Test B, read-out: control value, Test B (gray mold on tomato)
[5] = system: Puccinia recondita; assay: Test Example E: Brown rust on wheat; format: in vivo; conditions: Table 7, Test E, read-out: control value, Test E (brown rust on wheat)
[6] = system: Alternaia brassicicola; assay: Test Example C: Alternaria sooty spot on cabbage; format: in vivo; conditions: Brassica oleracea; Table 7, Test C; read-out: control value, Test C (Alternaria sooty spot on cabbage)
[7] = system: Blumeria graminis f. sp. hordei; assay: Test Example D: Powdery mildew on barley; format: in vivo; conditions: Table 7, Test D, read-out: control value, Test D (powdery mildew on barley)
[8] = system: Colletotrichum orbiculare; assay: whole plant or invertebrate; conditions: in Cucumis sativus, read-out: control value, Test H (anthracnose on cucumber)
Experimental: Seeds of a test plant (cucumber variety: Sagami Hanjiro) were planted and cultivated until the first leaf appeared. In the test, the compounds of the present invention were dissolved into a dimethyl sulfoxide-methanol mixture solution (volume ratio: 9/1), and the resultant solutions were diluted with well water to a concentration of 250 ppm. The thus-obtained dilutions were sprayed to the test plant (2.5 ml/pot). After the dilutions dried, a conidial suspension (2-4×10^5 conidia/ml) of Colletotrichum orbiculare was inoculated to the plant by spraying. After the inoculation, the plant was kept in a mist chamber at room temperature of 20 to 23° C. for about 24 hours to promote the onset of disease. The disease development was investigated 6 to 10 days after the inoculation, and the effectiveness of the dilutions was evaluated.
Disease development in Test Example described above was evaluated in increments of 0.05 by setting 0 as no incidence of disease and 3 as disease development in a plant of untreated group. In addition, control values were calculated using the following equation based on disease development.
Control value=100 {1−(n/3)}
n=Disease development of each treated groups

CCn1c(-c2c(F)cc(O)cc2F)c(-n2cc(Cl)cn2)cc(Cl)c1=O [compound 184, 3-chloro-5-(4-chloro-1H-pyrazol-1-yl)-6-(2,6-difluoro-4-hydroxyphenyl)-1-ethylpyridin-2(1H)-one]
pest or weed control at 250 ppm [1]: > 50%
pest or weed control at 250 µg/mL [2]: < 50%
pest or weed control at 250 µg/mL [3]: < 50%
pest or weed control at 250 µg/mL [4]: > 50%
pest or weed control at 250 µg/mL [5]: > 50%
pest or weed control at 250 µg/mL [6]: > 50%
pest or weed control at 250 µg/mL [7]: < 50%
pest or weed control at 250 ppm [8]: > 50%

C#CCOc1cc(F)c(-c2c(-n3cc(Cl)cn3)cc(Cl)c(=O)n2CC)c(F)c1 [compound 201, 3-chloro-5-(4-chloro-1H-pyrazol-1-yl)-6-(2,6-difluoro-4-(propargyloxy)phenyl)-1-ethyl pyridin-2(1H)-one]
pest or weed control at 250 ppm [1]: < 50%
pest or weed control at 250 µg/mL [2]: > 50%
pest or weed control at 250 µg/mL [3]: < 50%
pest or weed control at 250 µg/mL [4]: > 50%
pest or weed control at 250 µg/mL [5]: > 50%
pest or weed control at 250 µg/mL [6]: > 50%
pest or weed control at 250 µg/mL [7]: > 50%
pest or weed control at 250 ppm [8]: > 50%

C=CCOc1cc(F)c(-c2c(-n3cc(Cl)cn3)cc(Cl)c(=O)n2CC)c(F)c1 [compound 202, 6-(4-(allyloxy)-2,6-difluorophenyl)-3-chloro-5-(4-chloro-1H-pyrazol-1-yl)-1-ethylpyridin-2(1H)-one]
pest or weed control at 250 ppm [1]: < 50%
pest or weed control at 250 µg/mL [2]: > 50%
pest or weed control at 250 µg/mL [3]: < 50%
pest or weed control at 250 µg/mL [4]: > 50%
pest or weed control at 250 µg/mL [5]: > 50%
pest or weed control at 250 µg/mL [6]: > 50%
pest or weed control at 250 µg/mL [7]: > 50%
pest or weed control at 250 ppm [8]: > 50%

CCn1c(-c2c(F)cc(OCCOC)cc2F)c(-n2cc(Cl)cn2)cc(Cl)c1=O [compound 204, 3-chloro-5-(4-chloro-1H-pyrazol-1-yl)-6-(2,6-difluoro-4-(2-methoxyethoxy)phenyl)-1-ethylpyridin-2(1H)-one]
pest or weed control at 250 ppm [1]: < 50%
pest or weed control at 250 µg/mL [2]: < 50%
pest or weed control at 250 µg/mL [3]: < 50%
pest or weed control at 250 µg/mL [4]: > 50%
pest or weed control at 250 µg/mL [5]: < 50%
pest or weed control at 250 µg/mL [6]: > 50%
pest or weed control at 250 µg/mL [7]: < 50%
pest or weed control at 250 ppm [8]: > 50%

CCn1c(-c2c(F)cc(OC(C)=O)cc2F)c(-n2cc(Cl)cn2)cc(Cl)c1=O [compound 205]
pest or weed control at 250 ppm [1]: < 50%
pest or weed control at 250 µg/mL [2]: < 50%
pest or weed control at 250 µg/mL [3]: < 50%
pest or weed control at 250 µg/mL ([4]; in Solanum lycopersicum): > 50%
pest or weed control at 250 µg/mL ([5]; in Triticum aestivum): > 50%
pest or weed control at 250 µg/mL [6]: > 50%
pest or weed control at 250 µg/mL ([7]; in Hordeum vulgare): < 50%
pest or weed control at 250 ppm [8]: < 50%

CCn1c(-c2c(F)cc(F)cc2F)c(-n2cc(Cl)cn2)cc(C)c1=O [compound 206, 5-(4-chloro-1H-pyrazol-1-yl)-1-ethyl-3-methyl-6-(2,4,6-trifluoro-phenyl)pyridin-2(1H)-one]
pest or weed control at 250 ppm [1]: < 50%
pest or weed control at 250 µg/mL [2]: > 50%
pest or weed control at 250 µg/mL [3]: < 50%
pest or weed control at 250 µg/mL [4]: > 50%
pest or weed control at 250 µg/mL [5]: > 50%
pest or weed control at 250 µg/mL [6]: > 50%
pest or weed control at 250 µg/mL [7]: > 50%
pest or weed control at 250 ppm [8]: > 50%

C#Cc1cc(-n2cc(Cl)cn2)c(-c2c(F)cc(F)cc2F)n(CC)c1=O [compound 223, 5-(4-chloro-1H-pyrazol-1-yl)-1-ethyl-3-ethynyl-6-(2,4,6-trifluorophenyl)pyridin-2(1H)-one]
pest or weed control at 250 ppm [1]: > 50%
pest or weed control at 250 µg/mL [2]: > 50%
pest or weed control at 250 µg/mL [3]: < 50%
pest or weed control at 250 µg/mL [4]: < 50%
pest or weed control at 250 µg/mL [5]: < 50%
pest or weed control at 250 µg/mL [6]: > 50%
pest or weed control at 250 µg/mL [7]: < 50%
pest or weed control at 250 ppm [8]: < 50%

CCn1c(-c2c(F)cc(F)cc2F)c(-n2cc(Cl)cn2)cc(OC)c1=O [compound 225, 5-(4-chloro-1H-pyrazol-1-yl)-1-ethyl-3-methoxy-6-(2,4,6-trifluorophenyl)pyridin-2(1H)-one]
pest or weed control at 250 ppm [1]: > 50%
pest or weed control at 250 µg/mL [2]: < 50%
pest or weed control at 250 µg/mL [3]: < 50%
pest or weed control at 250 µg/mL [4]: < 50%
pest or weed control at 250 µg/mL [5]: > 50%
pest or weed control at 250 µg/mL [6]: > 50%
pest or weed control at 250 µg/mL [7]: > 50%
pest or weed control at 250 ppm [8]: < 50%

CCn1c(-c2ccc(F)cc2F)c(-n2cc(C)cn2)cc(Br)c1=O [compound 226, 3-bromo-6-(2,4-difluorophenyl)-1-ethyl-5-(4-methyl-1H-pyrazol-1-yl)pyridin-2(1H)-one]
pest or weed control at 250 ppm [1]: > 50%
pest or weed control at 250 µg/mL [2]: > 50%
pest or weed control at 250 µg/mL [3]: < 50%
pest or weed control at 250 µg/mL [4]: > 50%
pest or weed control at 250 µg/mL [5]: > 50%
pest or weed control at 250 µg/mL [6]: > 50%
pest or weed control at 250 µg/mL [7]: > 50%
pest or weed control at 250 ppm [8]: > 50%

CCn1c(-c2ccc(F)cc2F)c(-n2ncc(C)c2Cl)cc(Br)c1=O [compound 228, 3-bromo-5-(5-chloro-4-methyl-1H-pyrazol-1-yl)-6-(2,4-difluoro-phenyl)-1-ethylpyridin-2(1H)-one]
pest or weed control at 250 ppm [1]: < 50%
pest or weed control at 250 µg/mL [2]: > 50%
pest or weed control at 250 µg/mL [3]: < 50%
pest or weed control at 250 µg/mL [4]: > 50%
pest or weed control at 250 µg/mL [5]: > 50%
pest or weed control at 250 µg/mL [6]: > 50%
pest or weed control at 250 µg/mL [7]: > 50%
pest or weed control at 250 ppm [8]: > 50%

CCn1c(-c2c(F)cc(F)cc2F)c(-n2cc(Cl)cn2)cc(C=O)c1=O [compound 265, 5-(4-chloro-1H-pyrazol-1-yl)-1-ethyl-2-oxo-6-(2,4,6-trifluorophenyl)-1,2-dihydropyridin-3-carboaldehyde]
pest or weed control at 250 ppm [1]: < 50%
pest or weed control at 250 µg/mL [2]: < 50%
pest or weed control at 250 µg/mL [3]: < 50%
pest or weed control at 250 µg/mL [4]: < 50%
pest or weed control at 250 µg/mL [5]: > 50%
pest or weed control at 250 µg/mL [6]: > 50%
pest or weed control at 250 µg/mL [7]: > 50%
pest or weed control at 250 ppm [8]: < 50%

CCn1c(-c2c(F)cc(F)cc2F)c(-n2cc(Cl)cn2)cc(C(F)F)c1=O [compound 266, 5-(4-chloro-H-pyrazol-1-yl)-3-(difluoromethyl)-1-ethyl-6-(2,4,6-trifluorophenyl)pyridin-2(1H)-one]
pest or weed control at 250 ppm [1]: > 50%
pest or weed control at 250 µg/mL [2]: > 50%
pest or weed control at 250 µg/mL [3]: < 50%
pest or weed control at 250 µg/mL [4]: > 50%
pest or weed control at 250 µg/mL [5]: > 50%
pest or weed control at 250 µg/mL [6]: > 50%
pest or weed control at 250 µg/mL [7]: > 50%
pest or weed control at 250 ppm [8]: > 50%
